The text below walks through data of ChEMBL document CHEMBL1122691, “Development of an affinity ligand for purification of alpha 2-adrenoceptors from human platelet membranes” (J Med Chem, 1984).

The test system of test [1] is Adrenergic receptor alpha-2 (Cavia porcellus). The following applies: Cardiac atrium.
The target in test [2] is T1, Adrenergic receptor alpha-2 (Homo sapiens, UniProt P08913+P18825+P18089).
T1 sequence (P08913 whole entry): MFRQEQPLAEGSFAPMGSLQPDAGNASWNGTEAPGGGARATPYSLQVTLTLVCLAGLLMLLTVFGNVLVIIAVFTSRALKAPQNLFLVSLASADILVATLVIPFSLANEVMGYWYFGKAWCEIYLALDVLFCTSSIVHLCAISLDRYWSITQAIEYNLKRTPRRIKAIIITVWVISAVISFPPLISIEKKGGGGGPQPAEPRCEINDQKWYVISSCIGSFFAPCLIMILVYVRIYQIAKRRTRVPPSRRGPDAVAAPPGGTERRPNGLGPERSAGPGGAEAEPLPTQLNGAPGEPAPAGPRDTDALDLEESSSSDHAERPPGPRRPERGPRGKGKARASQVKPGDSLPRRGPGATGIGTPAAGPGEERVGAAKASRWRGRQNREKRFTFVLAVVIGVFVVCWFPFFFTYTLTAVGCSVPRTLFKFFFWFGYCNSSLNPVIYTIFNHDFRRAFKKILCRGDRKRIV
T1 sequence (P18825 whole entry): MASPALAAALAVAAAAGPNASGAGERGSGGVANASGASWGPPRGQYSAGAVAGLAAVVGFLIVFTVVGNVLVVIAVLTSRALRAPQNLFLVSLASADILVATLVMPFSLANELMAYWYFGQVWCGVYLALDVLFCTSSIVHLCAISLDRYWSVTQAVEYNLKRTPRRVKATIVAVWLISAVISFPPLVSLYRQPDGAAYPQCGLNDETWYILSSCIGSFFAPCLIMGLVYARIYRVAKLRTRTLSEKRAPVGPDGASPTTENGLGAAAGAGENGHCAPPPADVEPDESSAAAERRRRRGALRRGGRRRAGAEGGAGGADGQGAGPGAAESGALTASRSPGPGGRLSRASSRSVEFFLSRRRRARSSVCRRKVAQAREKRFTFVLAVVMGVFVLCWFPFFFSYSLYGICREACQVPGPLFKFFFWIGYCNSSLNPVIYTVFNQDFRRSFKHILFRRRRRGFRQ
T1 sequence (P18089 whole entry): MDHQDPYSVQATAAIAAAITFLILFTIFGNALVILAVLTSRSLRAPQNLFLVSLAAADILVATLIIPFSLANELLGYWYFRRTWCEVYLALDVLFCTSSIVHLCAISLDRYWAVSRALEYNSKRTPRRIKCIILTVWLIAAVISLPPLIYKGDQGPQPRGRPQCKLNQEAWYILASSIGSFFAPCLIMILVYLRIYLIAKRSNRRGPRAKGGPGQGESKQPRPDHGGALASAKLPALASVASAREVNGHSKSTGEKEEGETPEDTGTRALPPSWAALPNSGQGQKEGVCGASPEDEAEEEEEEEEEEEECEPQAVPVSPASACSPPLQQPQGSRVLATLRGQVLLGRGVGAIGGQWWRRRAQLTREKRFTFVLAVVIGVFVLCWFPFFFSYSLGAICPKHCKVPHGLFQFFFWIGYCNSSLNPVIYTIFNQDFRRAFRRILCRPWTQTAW
Format: cell membranes.

Test [3] concerns the target T1, Adrenergic receptor alpha-2. The test can be described thus: Binding affinity against alpha-2-adrenergic receptor using 10 nM [3H]yohimbine in human platelet membranes from four to five separate experiments using 12 inhibitor concentrations. Format: cell membranes.
Test [4] has the same target. The test can be described thus: Binding affinity against alpha-2-adrenergic receptor using 10 nM [3H]yohimbine in preparations in human platelet membranes from three separate experiments using 10 inhibitor concentrations. The test is classed as cell membranes.

A word on the Ki: it is a measure of affinity in units of concentration, obtained from inhibition or displacement. Regarding `C=CCN1CCc2cccc(Cl)c2CC1`, the K beta in test [1] was 60 nM. This compound also displayed a Ki in test [2] of 6.1 nM.

Compound `C=CCOc1cccc2c1CCN(C)CC2` registered a K beta in test [1] of 206 nM. In test [2], the Ki is 338 nM.

For `C=CCOc1ccc(Cl)c2c1CCN(C)CC2`, the K beta in test [1] stood at 150 nM. Also, the Ki in test [3] came out at 48 nM.

Regarding `C=CCOc1ccc2c(c1)CCNCC2`, the inhibition constant (Ki) in test [4] is given as 232 nM.
